Data from ChEMBL document CHEMBL4627246, “Pyroglutamide-Based P2X7 Receptor Antagonists Targeting Inflammatory Bowel Disease” (J Med Chem, 2020).

Columns and labels:
Format in all cases: cell-based
[1] = tested on: NCI-H460; test: Cytotoxicity against human NCI-H460 cells assessed as effect on cell growth at 10 uM incubated for 48 hrs by sulforhodamine B assay; settings: nci-h460, 48 h
[2] = tested on: IGROV-1; test: Cytotoxicity against human IGROV1 cells assessed as effect on cell growth at 10 uM incubated for 48 hrs by sulforhodamine B assay; settings: igrov-1, 48 h
[3] = tested on: U-251; test: Cytotoxicity against human U251 cells assessed as effect on cell growth at 10 uM incubated for 48 hrs by sulforhodamine B assay; settings: u-251, 48 h
[4] = tested on: Malme-3M; test: Cytotoxicity against human MALME-3M cells assessed as effect on cell growth at 10 uM incubated for 48 hrs by sulforhodamine B assay
[5] = tested on: ACHN; test: Cytotoxicity against human ACHN cells assessed as effect on cell growth at 10 uM incubated for 48 hrs by sulforhodamine B assay
[6] = tested on: MDA-MB-468; test: Cytotoxicity against human MDA-MB-468 cells assessed as effect on cell growth at 10 uM incubated for 48 hrs by sulforhodamine B assay; settings: mda-mb-468, 48 h
[7] = tested on: NCI/ADR-RES; test: Cytotoxicity against human NCI/ADR-RES cells assessed as effect on cell growth at 10 uM incubated for 48 hrs by sulforhodamine B assay
[8] = tested on: UACC-257; test: Cytotoxicity against human UACC257 cells assessed as effect on cell growth at 10 uM incubated for 48 hrs by sulforhodamine B assay; settings: uacc-257, 48 h
[9] = tested on: SF-295; test: Cytotoxicity against human SF295 cells assessed as effect on cell growth at 10 uM incubated for 48 hrs by sulforhodamine B assay; settings: sf-295, 48 h
[10] = tested on: OVCAR-3; test: Cytotoxicity against human OVCAR3 cells assessed as effect on cell growth at 10 uM incubated for 48 hrs by sulforhodamine B assay; settings: ovcar-3, 48 h
[11] = tested on: T47D; test: Cytotoxicity against human T47D cells assessed as effect on cell growth at 10 uM incubated for 48 hrs by sulforhodamine B assay
[12] = tested on: PC-3; test: Cytotoxicity against human PC3 cells assessed as effect on cell growth at 10 uM incubated for 48 hrs by sulforhodamine B assay; settings: pc-3, 48 h
[13] = tested on: OVCAR-4; test: Cytotoxicity against human OVCAR4 cells assessed as effect on cell growth at 10 uM incubated for 48 hrs by sulforhodamine B assay; settings: ovcar-4, 48 h
[14] = tested on: CCRF-CEM; test: Cytotoxicity against human CCRF-CEM cells assessed as effect on cell growth at 10 uM incubated for 48 hrs by sulforhodamine B assay
[15] = tested on: HL-60(TB); test: Cytotoxicity against human HL-60(TB) cells assessed as effect on cell growth at 10 uM incubated for 48 hrs by sulforhodamine B assay
[16] = tested on: HCT-116; test: Cytotoxicity against human HCT116 cells assessed as effect on cell growth at 10 uM incubated for 48 hrs by sulforhodamine B assay; settings: hct-116, 48 h
[17] = tested on: SNB-75; test: Cytotoxicity against human SNB75 cells assessed as effect on cell growth at 10 uM incubated for 48 hrs by sulforhodamine B assay; settings: snb-75, 48 h
[18] = tested on: RPMI-8226; test: Cytotoxicity against human RPMI8226 cells assessed as effect on cell growth at 10 uM incubated for 48 hrs by sulforhodamine B assay; settings: rpmi-8226, 48 h
[19] = tested on: LOX IMVI; test: Cytotoxicity against human LOXIMVI cells assessed as effect on cell growth at 10 uM incubated for 48 hrs by sulforhodamine B assay
[20] = tested on: KM12; test: Cytotoxicity against human KM12 cells assessed as effect on cell growth at 10 uM incubated for 48 hrs by sulforhodamine B assay; settings: km12, 48 h

Measured: Activity

CN(C)C(=O)[C@@H]1CCC(=O)N1
Non-Toxic: [1] | [2] | [3] | [4] | [5] | [6] | [7] | [8] | [9] | [10] | [11] | [12] | [13] | [14] | [15] | [16] | [17] | [18] | [19] | [20]

O=C(NCc1ccccc1Cl)[C@@H]1CCC(=O)N1c1ccccc1
Non-Toxic: [1] | [2] | [3] | [4] | [5] | [6] | [7] | [8] | [9] | [10] | [11] | [12] | [13] | [14] | [15] | [16] | [17] | [18] | [19] | [20]

O=C(NCc1ccc(Cl)cc1Cl)c1ccccn1
Non-Toxic: [1] | [2] | [3] | [4] | [5] | [6] | [7] | [8] | [9] | [10] | [11] | [12] | [13] | [14] | [15] | [16] | [17] | [18] | [19] | [20]

O=C(NCc1ccc(Cl)cc1Cl)[C@@H]1CCC(=O)N1C(c1ccc(Cl)cc1)c1ccc(Cl)cc1
Non-Toxic: [1] | [2] | [3] | [4] | [5] | [6] | [7] | [8] | [9] | [10] | [11] | [12] | [13] | [14] | [15] | [16] | [17] | [18] | [19] | [20]

O=C(NCc1ccccc1Cl)[C@@H]1CCC(=O)N1Cc1ccc(Cl)cc1
Non-Toxic: [1] | [2] | [3] | [4] | [5] | [6] | [7] | [8] | [9] | [10] | [11] | [12] | [13] | [14] | [15] | [16] | [17] | [18] | [19] | [20]

COC(=O)[C@@H]1C/C(=C\NCc2ccc(Cl)cc2Cl)C(=O)N1C(=O)OC
Non-Toxic: [1] | [2] | [3] | [4] | [5] | [6] | [7] | [8] | [9] | [10] | [11] | [12] | [13] | [14] | [15] | [16] | [17] | [18] | [19] | [20]

C[n+]1ccccc1C(=O)NCc1ccc(Cl)cc1Cl.[I-]
Non-Toxic: [1] | [2] | [3] | [4] | [5] | [6] | [7] | [8] | [9] | [10] | [11] | [12] | [13] | [14] | [15] | [16] | [17] | [18] | [19] | [20]

O=C(Nc1ccc(Cl)cc1Cl)[C@@H]1CCC(=O)N1Cc1ccccc1Cl
Non-Toxic: [1] | [2] | [3] | [4] | [5] | [6] | [7] | [8] | [9] | [10] | [11] | [12] | [13] | [14] | [15] | [16] | [17] | [18] | [19] | [20]

COc1ccc(N2C(=O)[C@@H]3C/C(=C\N(C)C)C(=O)N3C2N(C)C)cc1 (stereo not given in full)
Non-Toxic: [1] | [2] | [3] | [4] | [5] | [6] | [7] | [8] | [9] | [10] | [11] | [12] | [13] | [14] | [15] | [16] | [17] | [18] | [19] | [20]
